The record followed here is ChEMBL document CHEMBL4043168, “The design and SAR of a novel series of 2-aminopyridine based LRRK2 inhibitors” (Bioorg Med Chem Lett, 2017).

In experiment [1] the target is 5'-AMP-activated protein kinase catalytic subunit alpha-2 (Homo sapiens) (UniProt P54646). Briefly: Inhibition of AMPKa2 labeling at conserved Lys1 (VAVKILNR) in human PBMC at 0.1 uM.
Experiment [2] addresses Tyrosine-protein kinase JAK1 (Homo sapiens) (UniProt P23458). Briefly: Inhibition of JAK1 domain1 (QLASALSYLEDKDLVHGNVCTKNLLLAR) in human PBMC at 0.1 uM.
Experiment [3] has as its target Protein kinase C beta type (Homo sapiens) (UniProt P05771). Briefly: Inhibition of PKCb conserved Lys2 (DLKLDNVMLDSEGHIK) in human PBMC at 1 uM.
Experiment [4] concerns the target T1, Inhibitor of nuclear factor kappa-B kinase subunit epsilon (Homo sapiens) (UniProt Q14164).
T1 sequence (whole entry): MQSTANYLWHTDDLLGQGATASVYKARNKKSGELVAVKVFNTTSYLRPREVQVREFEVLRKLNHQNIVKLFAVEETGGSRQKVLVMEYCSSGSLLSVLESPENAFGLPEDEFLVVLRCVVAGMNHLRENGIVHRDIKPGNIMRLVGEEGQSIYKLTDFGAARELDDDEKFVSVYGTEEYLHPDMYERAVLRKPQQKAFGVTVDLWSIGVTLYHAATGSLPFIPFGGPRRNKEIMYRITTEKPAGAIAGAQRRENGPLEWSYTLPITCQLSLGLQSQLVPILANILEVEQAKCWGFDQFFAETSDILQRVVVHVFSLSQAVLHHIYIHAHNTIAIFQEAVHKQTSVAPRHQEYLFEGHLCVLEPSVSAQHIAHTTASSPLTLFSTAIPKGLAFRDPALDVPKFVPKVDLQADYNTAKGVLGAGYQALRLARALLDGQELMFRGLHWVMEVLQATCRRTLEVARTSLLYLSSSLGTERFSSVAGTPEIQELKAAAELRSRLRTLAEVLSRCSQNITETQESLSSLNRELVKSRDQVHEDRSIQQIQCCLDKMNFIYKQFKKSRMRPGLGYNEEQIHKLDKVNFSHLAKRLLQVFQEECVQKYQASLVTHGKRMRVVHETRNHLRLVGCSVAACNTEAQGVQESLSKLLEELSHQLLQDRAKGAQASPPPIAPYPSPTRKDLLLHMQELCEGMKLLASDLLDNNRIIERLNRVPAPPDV
The experiment is described as follows: Inhibition of IKKe conserved Lys2 (DIKPGNIMR) in human PBMC at 1 uM.

Experiment [5] has as its target Mitogen-activated protein kinase kinase kinase 3 (Homo sapiens) (UniProt Q99759). Briefly: Inhibition of MAP3K3 conserved Lys2 (DIKGANILR) in human PBMC at 0.1 uM.
Experiment [6] has as its target T2, Serine/threonine-protein kinase LATS1 (Homo sapiens) (UniProt O95835).
T2 sequence (whole entry): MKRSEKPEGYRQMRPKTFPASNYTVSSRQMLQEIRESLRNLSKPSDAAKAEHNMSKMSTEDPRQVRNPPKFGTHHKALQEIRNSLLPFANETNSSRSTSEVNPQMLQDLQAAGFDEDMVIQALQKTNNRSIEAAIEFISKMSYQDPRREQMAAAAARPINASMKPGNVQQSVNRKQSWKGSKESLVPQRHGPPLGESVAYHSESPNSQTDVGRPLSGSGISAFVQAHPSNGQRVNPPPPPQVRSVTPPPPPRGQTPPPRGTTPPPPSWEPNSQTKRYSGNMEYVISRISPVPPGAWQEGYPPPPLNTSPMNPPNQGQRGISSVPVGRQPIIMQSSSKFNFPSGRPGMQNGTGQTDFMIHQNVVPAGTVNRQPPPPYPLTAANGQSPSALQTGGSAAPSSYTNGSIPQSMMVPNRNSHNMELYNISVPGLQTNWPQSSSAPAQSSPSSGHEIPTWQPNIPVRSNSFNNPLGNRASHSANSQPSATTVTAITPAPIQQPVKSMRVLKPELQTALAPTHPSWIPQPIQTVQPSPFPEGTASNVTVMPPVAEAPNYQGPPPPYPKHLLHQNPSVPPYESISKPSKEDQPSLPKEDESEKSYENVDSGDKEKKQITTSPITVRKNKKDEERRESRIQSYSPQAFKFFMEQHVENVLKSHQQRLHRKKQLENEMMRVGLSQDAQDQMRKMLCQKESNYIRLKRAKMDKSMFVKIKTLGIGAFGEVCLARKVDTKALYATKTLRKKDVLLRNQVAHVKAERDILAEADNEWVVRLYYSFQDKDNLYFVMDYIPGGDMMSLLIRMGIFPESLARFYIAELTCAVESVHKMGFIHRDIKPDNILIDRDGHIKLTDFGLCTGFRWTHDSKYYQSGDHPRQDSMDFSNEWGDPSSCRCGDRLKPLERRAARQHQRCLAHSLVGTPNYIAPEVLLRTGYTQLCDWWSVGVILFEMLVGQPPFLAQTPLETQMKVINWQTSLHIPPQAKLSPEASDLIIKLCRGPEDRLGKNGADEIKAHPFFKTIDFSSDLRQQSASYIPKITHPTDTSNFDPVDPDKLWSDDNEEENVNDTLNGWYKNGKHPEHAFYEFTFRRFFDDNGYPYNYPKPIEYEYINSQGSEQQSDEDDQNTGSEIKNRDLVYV
The experiment is described as follows: Inhibition of LATS1 conserved Lys2 (DIKPDNILIDR) in human PBMC at 0.1 uM.

In experiment [7] the target is Serine/threonine-protein kinase 24 (Homo sapiens) (UniProt Q9Y6E0). The experiment is described as follows: Inhibition of MST3 conserved Lys2 (DIKAANVLLSEHGEVK) in human PBMC at 0.1 uM.
Chain of Serine/threonine-protein kinase 24 (Homo sapiens) (Q9Y6E0 whole entry, looked up): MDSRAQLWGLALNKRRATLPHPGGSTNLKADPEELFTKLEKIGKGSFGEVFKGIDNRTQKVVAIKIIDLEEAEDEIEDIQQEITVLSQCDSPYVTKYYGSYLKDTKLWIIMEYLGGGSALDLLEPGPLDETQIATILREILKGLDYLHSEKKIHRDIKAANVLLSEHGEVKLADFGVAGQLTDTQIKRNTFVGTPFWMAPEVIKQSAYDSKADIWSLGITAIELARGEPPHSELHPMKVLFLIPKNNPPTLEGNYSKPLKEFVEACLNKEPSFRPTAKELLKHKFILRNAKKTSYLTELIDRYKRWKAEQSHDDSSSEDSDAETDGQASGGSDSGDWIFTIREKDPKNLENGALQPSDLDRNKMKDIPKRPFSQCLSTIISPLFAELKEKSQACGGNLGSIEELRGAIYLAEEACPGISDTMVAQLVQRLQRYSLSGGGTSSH
For experiment [8], the target named is Serine/threonine-protein kinase WNK2 (Homo sapiens) (UniProt Q9Y3S1). Briefly: Inhibition of Wnk2 activation Loop (IGDLGLATLKR) in human PBMC at 1 uM.
Chain of Serine/threonine-protein kinase WNK2 (Homo sapiens) (Q9Y3S1 whole entry): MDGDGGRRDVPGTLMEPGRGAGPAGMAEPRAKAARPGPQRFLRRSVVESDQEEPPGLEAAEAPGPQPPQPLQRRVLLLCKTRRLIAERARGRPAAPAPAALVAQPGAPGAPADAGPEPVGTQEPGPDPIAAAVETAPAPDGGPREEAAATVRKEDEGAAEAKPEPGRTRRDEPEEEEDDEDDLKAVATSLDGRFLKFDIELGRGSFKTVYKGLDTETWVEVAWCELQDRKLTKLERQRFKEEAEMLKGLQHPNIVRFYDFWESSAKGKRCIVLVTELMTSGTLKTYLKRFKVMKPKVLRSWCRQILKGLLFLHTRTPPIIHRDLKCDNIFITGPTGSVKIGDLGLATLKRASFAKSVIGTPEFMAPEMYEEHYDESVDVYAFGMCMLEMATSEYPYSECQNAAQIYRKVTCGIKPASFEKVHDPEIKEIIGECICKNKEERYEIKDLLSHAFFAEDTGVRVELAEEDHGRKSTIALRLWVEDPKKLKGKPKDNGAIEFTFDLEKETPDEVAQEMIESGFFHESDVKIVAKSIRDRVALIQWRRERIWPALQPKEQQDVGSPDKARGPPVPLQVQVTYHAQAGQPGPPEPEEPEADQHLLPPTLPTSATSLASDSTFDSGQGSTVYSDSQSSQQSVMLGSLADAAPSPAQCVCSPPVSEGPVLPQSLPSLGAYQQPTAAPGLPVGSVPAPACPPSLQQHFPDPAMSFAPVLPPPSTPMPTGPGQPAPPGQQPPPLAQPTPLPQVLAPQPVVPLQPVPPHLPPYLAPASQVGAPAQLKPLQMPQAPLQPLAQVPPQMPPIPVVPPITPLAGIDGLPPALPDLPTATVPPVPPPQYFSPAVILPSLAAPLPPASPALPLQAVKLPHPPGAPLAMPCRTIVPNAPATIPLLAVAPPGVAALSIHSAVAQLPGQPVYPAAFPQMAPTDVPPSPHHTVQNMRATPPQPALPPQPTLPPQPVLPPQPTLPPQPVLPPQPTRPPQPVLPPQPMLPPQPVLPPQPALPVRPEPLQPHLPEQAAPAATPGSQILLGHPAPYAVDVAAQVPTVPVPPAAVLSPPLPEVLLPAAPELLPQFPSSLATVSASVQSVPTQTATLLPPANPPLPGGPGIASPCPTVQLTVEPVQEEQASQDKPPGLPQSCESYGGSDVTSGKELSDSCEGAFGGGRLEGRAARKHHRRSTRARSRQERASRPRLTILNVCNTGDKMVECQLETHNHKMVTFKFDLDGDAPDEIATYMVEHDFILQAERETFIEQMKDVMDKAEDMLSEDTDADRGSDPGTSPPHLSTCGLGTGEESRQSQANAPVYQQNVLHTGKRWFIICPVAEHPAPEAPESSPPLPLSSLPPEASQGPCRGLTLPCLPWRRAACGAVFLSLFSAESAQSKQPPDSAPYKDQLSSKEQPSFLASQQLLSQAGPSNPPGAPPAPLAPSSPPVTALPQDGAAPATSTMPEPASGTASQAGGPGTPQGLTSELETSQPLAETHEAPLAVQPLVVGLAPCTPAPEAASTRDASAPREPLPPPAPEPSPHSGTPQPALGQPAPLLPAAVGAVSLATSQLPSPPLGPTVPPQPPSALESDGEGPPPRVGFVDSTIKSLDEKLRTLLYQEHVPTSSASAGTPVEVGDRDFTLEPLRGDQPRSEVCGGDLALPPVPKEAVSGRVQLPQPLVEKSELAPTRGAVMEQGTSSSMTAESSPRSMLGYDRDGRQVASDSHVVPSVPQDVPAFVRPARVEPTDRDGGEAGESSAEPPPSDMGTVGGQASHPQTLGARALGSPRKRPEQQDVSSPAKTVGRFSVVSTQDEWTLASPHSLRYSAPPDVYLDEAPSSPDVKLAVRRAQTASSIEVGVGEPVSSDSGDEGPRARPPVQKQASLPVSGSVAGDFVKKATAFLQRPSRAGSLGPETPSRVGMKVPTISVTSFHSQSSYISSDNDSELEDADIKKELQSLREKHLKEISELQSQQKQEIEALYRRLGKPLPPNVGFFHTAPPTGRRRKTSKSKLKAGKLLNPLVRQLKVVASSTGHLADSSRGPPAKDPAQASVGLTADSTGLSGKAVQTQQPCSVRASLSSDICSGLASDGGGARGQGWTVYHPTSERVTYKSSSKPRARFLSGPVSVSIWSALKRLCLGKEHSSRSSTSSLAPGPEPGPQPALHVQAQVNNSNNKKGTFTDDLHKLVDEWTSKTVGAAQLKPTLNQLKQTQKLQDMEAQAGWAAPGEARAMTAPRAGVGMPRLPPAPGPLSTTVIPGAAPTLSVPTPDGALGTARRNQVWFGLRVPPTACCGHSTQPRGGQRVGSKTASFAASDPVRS
Experiment [9] has as its target Ribosomal protein S6 kinase alpha-3 (Homo sapiens) (UniProt P51812). Briefly: Inhibition of RSK2 conserved Lys2 (DLKPENILLDEEGHIK) in human PBMC at 0.1 uM.
The target in experiment [10] is Proto-oncogene tyrosine-protein kinase Src (Homo sapiens) (UniProt P12931). Briefly: Inhibition of SRC ATP binding site (QGAKFPIKWTAPEAALYGR) in human PBMC at 0.1 uM.
For experiment [11], the target named is Inhibitor of nuclear factor kappa-B kinase subunit alpha (Homo sapiens) (UniProt O15111). Briefly: Inhibition of IKKa conserved Lys2 (DLKPENIVLQDVGGK) in human PBMC at 0.1 uM.
Experiment [12] addresses Serine/threonine-protein kinase WNK2 (Homo sapiens) (UniProt Q9Y3S1). The experiment is described as follows: Inhibition of Wnk2 ATP binding site (GSFKTVYK) in human PBMC at 0.1 uM.
Experiment [13] has as its target Tyrosine-protein kinase BTK (Homo sapiens) (UniProt Q06187). Briefly: Inhibition of BTK labeling at activation Loop (YVLDDEYTSSVGSKFPVR) in human PBMC at 0.1 uM.
For experiment [14], the target named is Ribosomal protein S6 kinase alpha-2 (Homo sapiens) (UniProt Q15349). Briefly: Inhibition of RSK3 domain1 conserved Lys2 (DLKPENILLDEEGHIK) in human PBMC at 0.1 uM.
Chain of Ribosomal protein S6 kinase alpha-2 (Homo sapiens) (Q15349 whole entry, the tested form may be a part): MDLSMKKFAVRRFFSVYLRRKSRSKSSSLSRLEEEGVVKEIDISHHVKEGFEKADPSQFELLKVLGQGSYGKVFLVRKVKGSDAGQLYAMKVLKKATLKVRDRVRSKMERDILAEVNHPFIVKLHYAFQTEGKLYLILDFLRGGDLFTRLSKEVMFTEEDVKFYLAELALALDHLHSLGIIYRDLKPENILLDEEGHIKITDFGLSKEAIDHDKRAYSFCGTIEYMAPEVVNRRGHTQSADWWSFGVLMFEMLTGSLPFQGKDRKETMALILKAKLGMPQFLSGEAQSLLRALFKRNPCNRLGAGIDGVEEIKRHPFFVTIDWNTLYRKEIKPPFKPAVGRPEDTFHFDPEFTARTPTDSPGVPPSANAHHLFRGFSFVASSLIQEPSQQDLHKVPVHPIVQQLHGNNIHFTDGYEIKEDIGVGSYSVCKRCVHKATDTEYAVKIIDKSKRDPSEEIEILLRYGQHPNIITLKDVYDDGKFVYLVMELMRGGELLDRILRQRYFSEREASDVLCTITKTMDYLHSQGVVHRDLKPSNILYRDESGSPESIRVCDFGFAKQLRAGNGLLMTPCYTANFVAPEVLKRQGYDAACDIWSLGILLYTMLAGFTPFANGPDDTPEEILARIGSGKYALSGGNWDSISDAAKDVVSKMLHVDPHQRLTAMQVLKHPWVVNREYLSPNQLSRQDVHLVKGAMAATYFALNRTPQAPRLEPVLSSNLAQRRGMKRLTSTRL

Chain of Tyrosine-protein kinase JAK1 (Homo sapiens) (P23458 whole entry, the tested form may be a part): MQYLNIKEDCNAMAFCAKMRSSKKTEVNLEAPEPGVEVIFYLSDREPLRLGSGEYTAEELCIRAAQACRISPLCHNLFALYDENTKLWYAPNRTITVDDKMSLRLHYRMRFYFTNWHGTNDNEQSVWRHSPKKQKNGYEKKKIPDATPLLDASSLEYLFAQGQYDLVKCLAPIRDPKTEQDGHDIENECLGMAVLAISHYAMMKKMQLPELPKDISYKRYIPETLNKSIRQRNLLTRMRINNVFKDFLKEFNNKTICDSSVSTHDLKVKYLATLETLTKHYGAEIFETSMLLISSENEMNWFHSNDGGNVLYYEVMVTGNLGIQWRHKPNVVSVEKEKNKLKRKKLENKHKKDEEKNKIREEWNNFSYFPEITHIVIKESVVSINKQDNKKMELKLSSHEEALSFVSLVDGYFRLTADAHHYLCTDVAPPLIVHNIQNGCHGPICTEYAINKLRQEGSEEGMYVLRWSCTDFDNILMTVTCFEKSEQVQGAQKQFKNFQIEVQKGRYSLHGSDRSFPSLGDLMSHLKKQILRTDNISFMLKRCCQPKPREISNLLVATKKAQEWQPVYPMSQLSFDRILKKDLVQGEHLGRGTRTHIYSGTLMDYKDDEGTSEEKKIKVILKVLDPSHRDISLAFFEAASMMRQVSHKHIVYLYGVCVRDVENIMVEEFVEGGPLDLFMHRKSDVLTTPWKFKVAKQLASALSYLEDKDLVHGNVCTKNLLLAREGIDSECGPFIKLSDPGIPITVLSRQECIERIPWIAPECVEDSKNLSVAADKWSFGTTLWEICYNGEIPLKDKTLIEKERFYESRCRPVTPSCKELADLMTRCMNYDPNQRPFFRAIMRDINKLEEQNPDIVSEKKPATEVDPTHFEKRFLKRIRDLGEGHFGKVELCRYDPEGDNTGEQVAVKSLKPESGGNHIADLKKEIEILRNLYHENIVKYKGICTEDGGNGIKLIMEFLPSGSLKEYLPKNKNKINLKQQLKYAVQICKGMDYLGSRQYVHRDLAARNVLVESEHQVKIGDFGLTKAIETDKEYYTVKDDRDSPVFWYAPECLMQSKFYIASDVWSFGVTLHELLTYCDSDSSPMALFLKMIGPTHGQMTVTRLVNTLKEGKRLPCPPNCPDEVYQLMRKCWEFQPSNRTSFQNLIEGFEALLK

For `CC(C)n1cc(-c2cc(-c3ccc(CN4CCOCC4)cc3)cnc2N)nn1`, the inhibition in experiment [1] was 7.7%; in experiment [2], 16.4%; in [3] it was -7.4%; in [4], 11%; in experiment [5] it was 23.2%; in [6] it was 34.9%. For the same compound, the inhibition was 11% in [7]; 21.9% in experiment [8]; 11.8% in [9]; -4.4% in experiment [10]; -7.4% in experiment [11]; 18.3% in experiment [12]. The inhibition in experiment [13] is 14.2%; in [14], 11.8%.

One may read the inhibition as the relative decrease from the control value, in per cent.
